Here are results for three molecules from ChEMBL document CHEMBL1201862, “PubChem BioAssay data set” (2004).

A word on the AC50: it is the concentration at which the activity in the assay is half-maximal. Usually EC50 stands for the concentration needed to bring the measured effect to its halfway point. The Ki is a measure of affinity in units of concentration, obtained from inhibition or displacement. One may read the IC50 as the midpoint of a concentration-inhibition curve.

Active and inactive are the calls of the source.

The target of test [1] is T1, Histone-lysine N-methyltransferase NSD2 (Homo sapiens, UniProt O96028).
T1 sequence (O96028 whole entry): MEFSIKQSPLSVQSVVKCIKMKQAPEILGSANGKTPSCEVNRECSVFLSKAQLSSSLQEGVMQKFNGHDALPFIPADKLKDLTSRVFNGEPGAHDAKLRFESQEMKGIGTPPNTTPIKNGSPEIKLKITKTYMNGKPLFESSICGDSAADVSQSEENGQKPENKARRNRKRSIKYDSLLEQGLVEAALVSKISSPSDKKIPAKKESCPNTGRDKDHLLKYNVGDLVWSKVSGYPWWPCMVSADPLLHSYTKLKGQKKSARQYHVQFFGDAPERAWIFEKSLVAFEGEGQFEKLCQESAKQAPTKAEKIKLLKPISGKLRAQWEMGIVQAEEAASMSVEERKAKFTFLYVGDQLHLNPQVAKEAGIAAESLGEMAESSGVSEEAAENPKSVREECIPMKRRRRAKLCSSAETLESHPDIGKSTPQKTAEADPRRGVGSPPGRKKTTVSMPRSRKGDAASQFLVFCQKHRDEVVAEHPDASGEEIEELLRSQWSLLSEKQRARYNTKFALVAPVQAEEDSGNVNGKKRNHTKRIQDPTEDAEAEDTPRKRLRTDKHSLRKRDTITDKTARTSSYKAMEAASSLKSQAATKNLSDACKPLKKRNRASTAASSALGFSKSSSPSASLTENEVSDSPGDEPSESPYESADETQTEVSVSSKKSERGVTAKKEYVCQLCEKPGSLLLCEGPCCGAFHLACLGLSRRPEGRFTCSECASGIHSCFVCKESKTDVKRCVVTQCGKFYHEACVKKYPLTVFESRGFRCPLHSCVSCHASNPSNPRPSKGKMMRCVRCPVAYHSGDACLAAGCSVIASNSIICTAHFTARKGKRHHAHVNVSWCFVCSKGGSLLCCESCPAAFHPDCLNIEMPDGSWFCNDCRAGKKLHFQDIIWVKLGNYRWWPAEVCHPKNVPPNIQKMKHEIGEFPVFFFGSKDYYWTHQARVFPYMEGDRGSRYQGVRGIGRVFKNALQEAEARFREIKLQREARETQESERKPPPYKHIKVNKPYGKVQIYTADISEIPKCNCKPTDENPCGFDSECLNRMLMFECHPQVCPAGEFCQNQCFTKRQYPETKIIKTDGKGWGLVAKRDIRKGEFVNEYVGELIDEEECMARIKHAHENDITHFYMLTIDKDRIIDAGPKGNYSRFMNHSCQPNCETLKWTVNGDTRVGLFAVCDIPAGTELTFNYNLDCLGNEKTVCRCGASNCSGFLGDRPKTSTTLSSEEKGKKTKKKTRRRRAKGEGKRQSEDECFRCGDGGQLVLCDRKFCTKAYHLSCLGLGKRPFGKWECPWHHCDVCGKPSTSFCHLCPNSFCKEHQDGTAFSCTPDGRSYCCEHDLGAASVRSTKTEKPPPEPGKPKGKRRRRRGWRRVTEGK
It is filed as biochemical.

Test [2] concerns the target T2, Protein RecA (Mycobacterium tuberculosis, UniProt P9WHJ3).
T2 sequence (P9WHJ3 whole entry): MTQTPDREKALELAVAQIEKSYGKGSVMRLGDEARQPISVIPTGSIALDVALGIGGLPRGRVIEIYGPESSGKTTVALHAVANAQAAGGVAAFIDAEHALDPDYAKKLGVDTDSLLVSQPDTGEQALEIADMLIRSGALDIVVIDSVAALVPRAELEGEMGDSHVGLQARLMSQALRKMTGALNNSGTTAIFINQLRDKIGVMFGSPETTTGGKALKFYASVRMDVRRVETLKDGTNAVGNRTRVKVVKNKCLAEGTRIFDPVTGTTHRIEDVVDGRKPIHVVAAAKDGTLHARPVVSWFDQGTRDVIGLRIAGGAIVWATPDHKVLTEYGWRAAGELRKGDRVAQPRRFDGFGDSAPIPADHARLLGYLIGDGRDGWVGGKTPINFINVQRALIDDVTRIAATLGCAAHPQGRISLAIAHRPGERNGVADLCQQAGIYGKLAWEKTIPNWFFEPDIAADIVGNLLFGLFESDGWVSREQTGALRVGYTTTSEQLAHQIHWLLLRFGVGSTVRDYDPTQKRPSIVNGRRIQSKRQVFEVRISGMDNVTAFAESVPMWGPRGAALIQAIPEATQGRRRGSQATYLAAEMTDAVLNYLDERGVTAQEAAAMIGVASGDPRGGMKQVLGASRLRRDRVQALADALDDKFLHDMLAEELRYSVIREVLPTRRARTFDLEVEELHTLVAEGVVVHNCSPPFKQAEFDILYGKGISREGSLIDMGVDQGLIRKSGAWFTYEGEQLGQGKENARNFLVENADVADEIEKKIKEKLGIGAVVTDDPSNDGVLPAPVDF
Put plainly: Fluorescence Cell-Free Homogeneous Dose Retest to Identify Inhibitors of RecA-Intein Splicing Activity. [Related pubchem assays (depositor defined):AID2097, AID2223, AID489010, AID492950]. It is filed as functional.

Test [3] concerns the target Serine/threonine-protein kinase PLK4 (Homo sapiens, UniProt O00444). It is filed as functional.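 Note: PLK4 measured as one member of a kinome-wide kinase profiling panel.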
For test [4], the target named is Serine/threonine-protein kinase Chk2 (Homo sapiens, UniProt O96017). It is filed as functional.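 Note: CHEK2 entry within a kinome-wide screening panel.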
Test [5] deals with STE20-like serine/threonine-protein kinase (Homo sapiens, UniProt Q9H2G2). It counts as functional.
Chain of STE20-like serine/threonine-protein kinase (Q9H2G2 whole entry): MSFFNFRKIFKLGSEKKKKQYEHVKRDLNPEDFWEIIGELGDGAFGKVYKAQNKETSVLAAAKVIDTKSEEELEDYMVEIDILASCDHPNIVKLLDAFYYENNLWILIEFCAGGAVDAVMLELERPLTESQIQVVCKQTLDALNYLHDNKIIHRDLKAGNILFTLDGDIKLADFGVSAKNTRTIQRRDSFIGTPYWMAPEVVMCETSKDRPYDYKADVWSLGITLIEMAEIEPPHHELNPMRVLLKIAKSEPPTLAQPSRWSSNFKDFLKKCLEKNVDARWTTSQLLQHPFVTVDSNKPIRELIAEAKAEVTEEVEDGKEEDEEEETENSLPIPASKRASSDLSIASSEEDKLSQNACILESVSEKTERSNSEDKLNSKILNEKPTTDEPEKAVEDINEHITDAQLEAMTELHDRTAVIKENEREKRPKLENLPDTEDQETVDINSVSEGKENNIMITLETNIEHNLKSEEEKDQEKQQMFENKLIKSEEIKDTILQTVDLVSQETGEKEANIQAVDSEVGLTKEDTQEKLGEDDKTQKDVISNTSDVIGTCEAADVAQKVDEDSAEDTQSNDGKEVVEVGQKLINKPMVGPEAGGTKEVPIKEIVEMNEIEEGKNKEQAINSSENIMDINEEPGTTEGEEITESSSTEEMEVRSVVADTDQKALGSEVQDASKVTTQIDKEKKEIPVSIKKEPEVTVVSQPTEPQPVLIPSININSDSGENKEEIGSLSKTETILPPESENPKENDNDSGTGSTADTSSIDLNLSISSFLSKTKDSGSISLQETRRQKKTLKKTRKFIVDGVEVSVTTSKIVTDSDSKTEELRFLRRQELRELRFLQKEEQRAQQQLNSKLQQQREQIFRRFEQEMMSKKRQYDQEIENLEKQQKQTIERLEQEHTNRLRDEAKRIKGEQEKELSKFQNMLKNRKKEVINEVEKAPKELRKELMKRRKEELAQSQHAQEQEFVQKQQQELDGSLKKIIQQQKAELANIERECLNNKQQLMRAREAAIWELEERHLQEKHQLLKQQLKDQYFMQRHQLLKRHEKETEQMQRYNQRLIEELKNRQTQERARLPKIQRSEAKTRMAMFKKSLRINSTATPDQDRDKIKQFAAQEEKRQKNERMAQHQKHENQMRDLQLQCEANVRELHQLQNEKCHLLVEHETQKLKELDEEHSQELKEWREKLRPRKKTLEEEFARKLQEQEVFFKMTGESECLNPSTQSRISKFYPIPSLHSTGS
In test [6] the target is Ribosomal protein S6 kinase alpha-3 (Homo sapiens, UniProt P51812). It counts as functional.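 Note: measured within a kinome-wide profiling panel.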
Chain of Ribosomal protein S6 kinase alpha-3 (P51812 whole entry): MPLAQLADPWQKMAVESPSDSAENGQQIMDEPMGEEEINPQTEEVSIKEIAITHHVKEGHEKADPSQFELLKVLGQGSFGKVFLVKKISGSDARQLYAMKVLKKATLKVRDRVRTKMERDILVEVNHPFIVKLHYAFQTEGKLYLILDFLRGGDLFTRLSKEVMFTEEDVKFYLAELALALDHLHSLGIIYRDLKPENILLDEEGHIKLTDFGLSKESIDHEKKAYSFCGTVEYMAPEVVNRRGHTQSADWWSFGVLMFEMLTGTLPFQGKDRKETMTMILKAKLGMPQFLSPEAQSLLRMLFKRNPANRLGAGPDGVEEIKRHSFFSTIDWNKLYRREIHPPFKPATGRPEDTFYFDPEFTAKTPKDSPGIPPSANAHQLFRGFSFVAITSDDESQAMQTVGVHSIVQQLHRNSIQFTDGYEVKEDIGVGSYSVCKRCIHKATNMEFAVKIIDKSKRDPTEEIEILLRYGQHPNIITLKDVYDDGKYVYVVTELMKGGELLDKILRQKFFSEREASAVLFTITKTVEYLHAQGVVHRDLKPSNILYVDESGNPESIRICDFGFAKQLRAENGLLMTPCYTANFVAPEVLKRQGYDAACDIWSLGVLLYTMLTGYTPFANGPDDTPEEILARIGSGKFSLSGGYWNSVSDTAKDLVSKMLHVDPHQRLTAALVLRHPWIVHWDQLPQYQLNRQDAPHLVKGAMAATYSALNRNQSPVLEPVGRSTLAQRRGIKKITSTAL
Test [7] deals with Ribosomal protein S6 kinase beta-1 (Homo sapiens, UniProt P23443). It counts as functional.
Chain of Ribosomal protein S6 kinase beta-1 (P23443 whole entry): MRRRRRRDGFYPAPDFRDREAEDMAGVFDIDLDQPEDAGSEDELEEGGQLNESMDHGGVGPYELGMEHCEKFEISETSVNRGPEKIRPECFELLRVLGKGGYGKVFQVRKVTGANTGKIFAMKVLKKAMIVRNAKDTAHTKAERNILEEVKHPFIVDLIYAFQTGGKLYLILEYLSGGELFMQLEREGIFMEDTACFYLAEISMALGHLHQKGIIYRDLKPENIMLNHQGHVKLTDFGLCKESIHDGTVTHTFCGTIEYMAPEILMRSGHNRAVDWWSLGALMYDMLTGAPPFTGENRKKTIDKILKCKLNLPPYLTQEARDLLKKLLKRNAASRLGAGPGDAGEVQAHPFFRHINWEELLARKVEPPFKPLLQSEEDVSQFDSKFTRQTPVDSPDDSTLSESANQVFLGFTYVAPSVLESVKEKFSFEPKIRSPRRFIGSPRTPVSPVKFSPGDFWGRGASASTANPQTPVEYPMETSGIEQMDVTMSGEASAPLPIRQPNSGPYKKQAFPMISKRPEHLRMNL
For test [8], the target named is Proto-oncogene tyrosine-protein kinase ROS (Homo sapiens, UniProt P08922). It is filed as functional.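 Note: ROS1 tested as one member of a kinome-wide kinase panel.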
For test [9], the target named is Cyclin-dependent kinase 5 (Homo sapiens, UniProt Q00535). It counts as functional.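 Note: CDK5 measured as one member of a kinase profiling panel.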
Chain of Cyclin-dependent kinase 5 (Q00535 whole entry): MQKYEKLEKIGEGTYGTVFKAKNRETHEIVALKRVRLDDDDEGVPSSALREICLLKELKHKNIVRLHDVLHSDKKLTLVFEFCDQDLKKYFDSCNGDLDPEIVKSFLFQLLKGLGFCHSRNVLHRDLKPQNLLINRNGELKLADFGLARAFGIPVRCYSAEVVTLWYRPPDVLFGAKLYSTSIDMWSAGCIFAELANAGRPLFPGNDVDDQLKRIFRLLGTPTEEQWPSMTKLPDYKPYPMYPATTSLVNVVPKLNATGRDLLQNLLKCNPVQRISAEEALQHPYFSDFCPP
In test [10] the target is MAP kinase-activated protein kinase 5 (Homo sapiens, UniProt Q8IW41). It is filed as functional.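 Note: measured as one member of a kinome panel.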
Chain of MAP kinase-activated protein kinase 5 (Q8IW41 whole entry): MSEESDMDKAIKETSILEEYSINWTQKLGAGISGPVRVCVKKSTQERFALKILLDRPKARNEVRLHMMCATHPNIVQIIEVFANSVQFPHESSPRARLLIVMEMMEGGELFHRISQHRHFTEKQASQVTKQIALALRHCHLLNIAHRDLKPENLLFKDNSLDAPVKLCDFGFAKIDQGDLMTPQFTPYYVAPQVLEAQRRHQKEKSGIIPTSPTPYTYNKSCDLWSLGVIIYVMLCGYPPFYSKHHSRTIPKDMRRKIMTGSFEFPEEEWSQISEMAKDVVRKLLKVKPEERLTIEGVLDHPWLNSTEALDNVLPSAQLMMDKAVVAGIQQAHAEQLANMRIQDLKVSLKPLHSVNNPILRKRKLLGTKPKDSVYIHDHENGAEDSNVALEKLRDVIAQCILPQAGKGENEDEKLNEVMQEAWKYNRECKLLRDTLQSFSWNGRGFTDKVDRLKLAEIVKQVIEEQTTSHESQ
Test [11] concerns the target Serine/threonine-protein kinase Nek4 (Homo sapiens, UniProt P51957). It counts as functional.
Test [12] can be described thus: Counterscreen for AddAB inhibitors: absorbance-based bacterial cell-based high throughput dose response assay for inhibitors of bacterial viability. [Related pubchem assays (depositor defined):AID435030, AID449728, AID449731, AID488942, AID488955, AID488956]. It counts as functional. Background: Counterscreens check selectivity or assay interference.
For test [13], the target named is Heat shock protein HSP 90-alpha (Homo sapiens, UniProt P07900). It counts as functional, organism-based.
In test [14] the test system is Streptococcus. The test can be described thus: GAS UMAA2166 growth inhibition – luminescence, BacTiterGlo, counter-screen for streptokinase expression inhibitor project, dose response (AID 1915).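 Note: potency for reduction of bacterial viability or growth.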 It is filed as functional, organism-based.

Chain of Serine/threonine-protein kinase PLK4 (O00444 whole entry): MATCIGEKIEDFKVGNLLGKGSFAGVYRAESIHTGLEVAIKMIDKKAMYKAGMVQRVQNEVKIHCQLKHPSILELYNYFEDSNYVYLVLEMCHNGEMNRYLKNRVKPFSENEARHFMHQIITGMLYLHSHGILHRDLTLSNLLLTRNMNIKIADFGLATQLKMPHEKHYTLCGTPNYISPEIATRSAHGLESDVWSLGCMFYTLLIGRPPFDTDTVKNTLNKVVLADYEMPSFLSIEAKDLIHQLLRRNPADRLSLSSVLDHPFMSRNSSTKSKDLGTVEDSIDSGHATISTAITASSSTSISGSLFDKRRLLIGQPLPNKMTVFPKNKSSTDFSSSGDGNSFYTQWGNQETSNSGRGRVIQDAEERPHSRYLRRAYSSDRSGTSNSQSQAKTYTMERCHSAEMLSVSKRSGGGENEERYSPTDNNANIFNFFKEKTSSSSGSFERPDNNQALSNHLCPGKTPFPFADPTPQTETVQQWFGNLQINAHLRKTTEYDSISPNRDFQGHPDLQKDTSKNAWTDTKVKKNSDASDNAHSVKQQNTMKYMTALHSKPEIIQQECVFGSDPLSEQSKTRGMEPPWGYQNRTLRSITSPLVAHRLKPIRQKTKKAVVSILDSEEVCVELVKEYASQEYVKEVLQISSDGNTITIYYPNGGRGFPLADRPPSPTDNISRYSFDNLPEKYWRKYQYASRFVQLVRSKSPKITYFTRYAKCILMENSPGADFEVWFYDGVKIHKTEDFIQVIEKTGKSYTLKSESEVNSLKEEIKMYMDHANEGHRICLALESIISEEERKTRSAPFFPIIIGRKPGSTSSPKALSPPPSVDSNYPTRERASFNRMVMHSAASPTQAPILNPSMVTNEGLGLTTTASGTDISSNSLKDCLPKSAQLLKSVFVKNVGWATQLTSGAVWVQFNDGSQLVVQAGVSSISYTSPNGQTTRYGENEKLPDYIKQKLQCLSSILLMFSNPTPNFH
Chain of Serine/threonine-protein kinase Nek4 (P51957 whole entry): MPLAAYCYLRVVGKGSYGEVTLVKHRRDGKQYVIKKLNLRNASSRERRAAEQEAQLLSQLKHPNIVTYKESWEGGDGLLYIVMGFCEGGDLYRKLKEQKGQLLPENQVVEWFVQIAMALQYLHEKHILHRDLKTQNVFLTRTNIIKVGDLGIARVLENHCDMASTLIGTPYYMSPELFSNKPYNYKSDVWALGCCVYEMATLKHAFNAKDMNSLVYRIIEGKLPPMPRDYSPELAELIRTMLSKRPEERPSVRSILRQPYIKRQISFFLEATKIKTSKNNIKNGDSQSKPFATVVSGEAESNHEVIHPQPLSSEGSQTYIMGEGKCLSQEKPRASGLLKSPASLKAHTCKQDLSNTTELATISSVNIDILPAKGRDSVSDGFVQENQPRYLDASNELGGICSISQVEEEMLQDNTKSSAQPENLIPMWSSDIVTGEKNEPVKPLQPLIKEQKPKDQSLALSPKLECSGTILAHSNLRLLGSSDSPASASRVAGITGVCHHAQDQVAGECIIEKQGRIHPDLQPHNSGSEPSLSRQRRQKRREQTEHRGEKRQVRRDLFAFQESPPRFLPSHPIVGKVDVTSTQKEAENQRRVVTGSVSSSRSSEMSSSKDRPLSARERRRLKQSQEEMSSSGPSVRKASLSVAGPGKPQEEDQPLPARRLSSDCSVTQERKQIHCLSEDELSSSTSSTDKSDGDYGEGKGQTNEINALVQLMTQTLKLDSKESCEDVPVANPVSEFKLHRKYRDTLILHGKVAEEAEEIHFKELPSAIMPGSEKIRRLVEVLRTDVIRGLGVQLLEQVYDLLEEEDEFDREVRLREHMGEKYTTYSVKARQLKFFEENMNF

As for `OCC[n+]1c2ccccc2nc2ccc(N3CCOCC3)cc21`, the AC50 in test [1] is 6.78 µM (active). In [2], the EC50 was > 120 µM (inconclusive).
With `CS(=O)(=O)N(Cc1ccc2[nH]c(=O)c3cccn3c2c1)C1CC1`, the Ki in [3] is 0.251 µM (active); in [4], > 1.58 µM (inactive); in test [5], > 10 µM (inactive); in test [6], > 2 µM (inactive); in test [7] it was > 6.31 µM (inactive); in [8], 0.0501 µM (active). In addition, the results for the Ki in [9], in test [10] and in test [11] were > 6.31 µM (inactive), 0.01 µM (active) and 0.251 µM (active), respectively.
For the molecule `Cc1cc(NC(c2ccc(Cl)cc2)c2ccc3cccnc3c2O)no1` (centres undefined), the IC50 in [12] is > 119 µM (inactive). Moreover, in test [13], the AC50 is 3.87 µM (active). Besides, the EC50 in [14] is 15 µM (active).
